According to US20160050895A1, “TRANSGENIC NON-HUMAN ORGANISMS WITH NON-FUNCTIONAL TSPO GENES” (AUSTRALIAN NUCLEAR SCIENCE AND TECHNOLOGY ORGANIZATION, priority 2013, published 2016):

How the values were obtained:
[1] = molecular target: T1, TSPO (Mus musculus, UniProt P50637); assay: Receptor film autoradiography of tissue sections with [3H]PK11195 and [125I]CLINDE; format: binding; set-up: Snap-frozen tissues were sectioned at 20 μm in a cryostat; from tissue; host or cells: mouse organ sections (brain, retina/eye, heart, adrenal, kidney, testis, spleen), C57BL/6 background; details: 10 μM unlabelled ligand; tissue sections from TSPO+/+ and TSPO+/- mice
Experimental: Snap-frozen tissues were sectioned at 20 μm in a cryostat, thaw mounted on poly-L-lysine-coated slides and stored at −80° C. until day of experiment. On the day of the experiment, slides were thawed at room temperature and air dried with a cool stream of air. Total and non-specific binding were determined by incubation with 1 nM of 3H-PK11195 with or without the presence of 3 μM of PK11195 in 130 mM TRIS-HCl buffer (pH 7.4) at room temperature for 20 minutes. Following incubation, the slides were briefly dipped twice in 130 mM TRIS-HCl buffer, washed twice for 5 minutes in fresh 130 mM TRIS-HCl at room temperature. The slides were finally briefly rinsed 3 times in chilled distilled H2O, dried under a cool stream of air and allowed to air dried overnight. Sections were exposed to Kodak BioMax MR film along with tritium microscales with known activity concentrations in X-ray film cassettes. Films were developed after 33 days and digitized using a GS800 Calibrated Densitometer (Bio-Rad, Hercules, Calif., USA). Images were analysed with Quantity One imaging analysis program (Bio-Rad, Hercules, Calif. USA); to assess the level of 3H-PK11195 binding, regions of interest were drawn over the tissue and an average optical density/mm^2 was calculated. Data obtained from an individual film, subject to interfilm variations, were normalized against other films through the optical density oftritium microscales.
The organs including brain, retina, heart, kidney and testes used for film autoradiography were dissected from wild-type (TSPO^+/+), heterozygous (TSPO^+/−), and homozygous (TSPO^−/−) mice and snap-frozen in liquid nitrogen. Cryostat organ sections at 18 μm were placed onto superfrost slides (Menzel-Glaser, Braunschweig, Germany) and stored in the dark at −20° C. for no longer than 1 week before the experiment. […] Tritium standards (Amersham Biosciences, Uppsala, Sweden) co-exposed with the organ sections on each Hyperfilm-^3H (Kodak Film) at 4° C. for 60 days, were used to quantify the autoradiographically measured binding. The hyperfilm was developed using Kodak GBX developer and fixer (Sigma Aldrich, St. Louis, Mo., U.S.A.). The hyperfilm was air-dried overnight before being scanned using the ArtixScan 1800f flatbed scanner (Microtek, Hsinchu, Taiwan), with greyscale using a magnification of 400% and an optical resolution of 2400 pixels per inch. No pre-scanning manipulation or filter was applied.
(§1) Tissue sections from TSPO^+/+, TSPO^+/− and TSPO^−/− mice were incubated at room temperature for 20 min in 170 mM Tris-HCl pH 7.4 containing 1 nM [^3H]PK11195 (specific activity 84 Ci/mmol; Perkin Elmer, Waltham, Mass., USA), washed twice for 5 min in 170 mM Tris-HCl, rinsed with 3 dips in ice-cold MilliQ H2O, and dried. […] Displacement binding was carried out in the presence of PK11195 (10 μM), CLINDE (10 μM) and PBR-11 (10 μM).

[2] = system: TSPO; assay: Radioligand membrane saturation binding with 3H-PK11195; set-up: species or system mouse; details: renal tissue samples; TSPO knock-out mice
Experimental: Tissue samples were homogenised with T25 digital Ultra-Turrax homogenizer (Ika, Wilmington, N.C., USA) at speed setting 5 or 20000 rpm in approximately 45 mL of ice-cold TRIS buffer (pH 7.4), collected by centrifugation at 48000 g and the supernatant was then discarded. The procedure was then immediately repeated, this acts as an extra wash step to remove any soluble interfering substances to radioligand binding (Byland et al. 1993). Following the second centrifugation and removal ofsupernatant the samples were resuspended in approximately 50 volumes of ice-cold TRIS buffer (pH 7.4). Samples were aliquoted stored in −80° C. until required.
For TSPO knock-out mice studies, radioligand binding was performed using 3H-PK11195 racemate across a range of concentrations (FIG. 4). PK11195 is a TSPO specific probe. Total and non-specific binding was determined through 8 concentrations of 3H-PK11195 ranging from 0.56 nM to 20 nM. Non-specific binding was determined by the addition of 5 μM PK11195 to all concentrations of 3H-PK11195. […]
Organs were homogenised, washed twice in ice-cold 50 mM Tris-HCl (pH 7.4) by centrifugation at 48000×g, resuspended in 50 volumes of ice-cold 50 mM Tris-HCl, and protein concentration was determined using a BCA protein assay kit (Thermo Fisher Scientific). […] Non-specific binding was determined with 5 μM PK11195. […]

[3] = system: TSPO; assay: Film autoradiography of brain sections after facial nerve axotomy; format: binding, mouse; details: homozygous (TSPO-/-) mice
Source text: Procedures for facial nerve axotomy were approved by the animal ethics committee at the University of Sydney. Animals were anaesthetised using Isoflurane anaesthesia. Animals were monitored for a combination of respiration, heart rate, oxygen saturation and temperature during procedures using a variety of monitoring equipment to ensure anaesthetic depth. The surgical process commenced when foot-pad or plantar reflex could no longer be elicited. The fur on the ipsilateral (right) side of the neck was shaved from the ear downwards, and the skin cleaned using 70% ethanol. A small incision (0.5-0.7 cm in length) overlying the musculature covering the stylomastoid foramen was made. The facial nerve was identified, isolated and then transected completely. The skin of incision was closed with heal-glue. […] The animals were euthanized with CO2 3 days after the axotomy and brain tissue, including facial nerve nuclei in the brain stem and cerebellum, was immediately dissected, snap-frozen in liquid nitrogen, and then stored in −80° C. freezer until the cryostat section.
A small incision (0.5-0.7 cm) in the skin 0.5 cm dorsal and lateral to the ear was made and the facial nerve transected under an operating microscope. The incision was closed with 3M™ Vetbond™ Tissue Adhesive (St. Paul, Minn., USA). […] Mice were monitored carefully and euthanized with CO2 three days after the operation. Brains were dissected, placed in OCT, transferred to liquid nitrogen, and stored at −80° C. until cryo-sectioning.
as §1

[4] = system: TSPO; assay: In vivo PET/CT imaging with [18F]PBR111; set-up: species or system mouse
Experimental: (§2) PET scans of test mice were performed using a small-animal Inveon PET/CT scanner (Siemens, Knoxville, Tenn., USA). Before scanning, the mice were anesthetized with 5% (v/v) isoflurane and positioned in the PET/CT scanner. The isoflurane level was maintained 1-2% thereafter. The body temperature was maintained with a feedback regulated heating pad and physiologic parameters (respiration and body temperature) were monitored (BioVet; m2m Imaging Corp.) for the entire scanning period. Lacri-lube (Allergan) was placed in the mouse's eyes to prevent drying while the mouse was anesthetized. The PET scans commenced simultaneously with the tail vein injection of [^18F]PBR111 (8-18 MBq/100 μL, 0.2 nmol). After 40 min of imaging, PBR111 (1 mg/kg in 2% acetic acid-saline) was injected via tail vein to determine the non-specific accumulation in organs and imaged for further 10 minutes. Upon completion of PET scanning, mice were CT scanned for 10 minutes for anatomical information. At the end of the study the mice were euthanized immediately after imaging by cervical dislocation while the animal was still fully anaesthetised.
(§3) Mice, anaesthetised (5% (v/v) isoflurane and maintained at 1-2%, were scanned using a small-animal Invcon PET/CT scanner (Siemens, Knoxville, Tenn., USA) according to methods described previously (Disselhorst, J. A. et al. Image-quality assessment for several positron emitters using the NEMA NU 4-2008 standards in the Siemens Inveon small-animal PET scanner. J Nucl Med 51, 610-617, doi:10.2967/jnumed.109.068858 (2010); Mattner, F. et al. Central nervous system expression and PET imaging of the translocator protein in relapsing-remitting experimental autoimmune encephalomyelitis. J Nucl Med 54, 291-298, doi: 10.2967/jnumed.112.108894 (2013)). Body temperature was maintained with a feedback regulated heating pad and respiration monitored (BioVet; m2m Imaging Corp, Cleveland, Ohio, USA). Scans started with the tail vein injection of [^18F]PBR111 (8-18 MBq/100 μL, […]). After 40 min of imaging, PBR111 (1 mg/kg in 2% acetic acid-saline) was injected to determine non-specific accumulation in organs and imaged for 10 minutes. Then, mice underwent a 10-min CT-scan for anatomical information. All PET data were corrected, normalised and reconstructed with an OSEM3D-MAP algorithm to produced PET volumes of activity concentration (kBq/ml).

[5] = molecular target: T1, TSPO; assay: In vivo PET/CT imaging with [18F]PBR111; set-up: from tissue; host or cells: organs of living mice (adrenal gland, kidney, heart, liver, lung, brain)
Experimental: as §2, §3

Molecule: CCN(CC)C(=O)Cc1c(-c2ccc(I)cc2)nc2ccc(Cl)cn12 [CLINDE]
- competitive binding: displacement of specific binding of [125I]CLINDE and [3H]PK11195 by unlabelled ligand [1]: displaced

Molecule: CC[C@@H](C)N(C)C(=O)c1cc2ccccc2c(-c2ccccc2Cl)n1 [PK11195, 1-(2-chlorophenyl)-N-methyl-N-(1-r-methylpropyl)-3-isoquinolinecarboxamide]
- binding of the TSPO-selective probe PK11195 [2]: no binding
- competitive binding: displacement of specific binding of [125I]CLINDE and [3H]PK11195 by unlabelled ligand [1]: displaced
- intensity of PK11195 binding in the cerebellum [3]: the same as the surrounding background

Molecule: CCN(CC)C(=O)Cc1c(-c2ccc(OCCC[18F])cc2)nc2ccc(Cl)cn12 [[^18F]PBR111]
- radiotracer observed in PET images ([4]; TSPO knock-out (homozygous, TSPO-/-) mouse): none
- ligand binding in PET/CT images ([4]; TSPO-/- mice): no ligand binding
- specific binding from radioligand kinetics and displacement with cold PBR111 ([4]; TSPO-/- mice, any organs, cold PBR111 (1 mg/kg)): do not have specific binding
- time course of radiotracer uptake ([4]; adrenal gland, kidney, liver and heart, TSPO knock-out mice (TSPO-/-)): rapidly reaches the peak and then declines to the non-specific level
- distribution of ligand binding in PET/CT images ([5]; TSPO+/+ and TSPO+/- mice): in organs with known high TSPO expression, notably kidney and adrenal gland
- specific binding from radioligand kinetics and displacement with cold PBR111 ([5]; TSPO+/+ and TSPO+/- mice, cold PBR111 (1 mg/kg)): indicates specific binding
- time course of radiotracer uptake ([5]; adrenal gland, kidney and liver, wild-type mice (TSPO+/+), until PBR111 at 40 min): slowly increases, but maintains a peak level
- selectivity for TSPO ([5]; in vivo, validated against TSPO-/- null background): high selectivity
- intensity of radiotracer in PET images ([5]; wild-type mouse (TSPO+/+)): high intensity

Molecule: PBR-111
- competitive binding: displacement of specific binding of [125I]CLINDE and [3H]PK11195 by unlabelled ligand [1]: displaced
